Reference: patent US4845130A, “Antihyperlipidemic amines” (United States Borax & Chemical Corporation, priority 1988, dated 1989)
Like-named read-outs stand apart in the source and are kept apart here.

Key:
serum cholesterol [1] = test: Serum cholesterol (modified Liebermann-Burchard reaction) in mice; type: in vivo, male CF1 mice; settings: for response vs control in vivo at 20 mg/kg: Mus musculus, 20 mg./kg./day intraparenterally, male CF1 mice; for Serum cholesterol, % of Control, Day 9 / Serum cholesterol, % of Control, Day 16: 8 mg./kg/day, procedure of Example 1
Experimental: (§1) For determining hypolipidemic activity, representative compounds of this invention were suspended in an aqueous 1% carboxymethylcellulose solution and tested at 20 mg./kg./ day administered intraparenterally to male CF1 mice (~25 g.). Six animals were used for each test. On days 9 and 16, blood was collected by tail vein bleeding and the serum separated by centrifugation for three minutes. Serum cholesterol levels were determined by a modified Liebermann-Burchard reaction. Serum triglyceride levels were also determined at 16 days using a Fisher-Hycel Triglyceride Test Kit.
(§2) The procedure of Example 1 was repeated with octade-cylamine and N,N-dimethyl-n-octadecylamine at a dosage of 8 mg./kg/ day.

serum triglyceride = test: Serum triglyceride (Fisher-Hycel Triglyceride Test Kit) in mice; type: in vivo, male CF1 mice; settings: Mus musculus, 384 h, Day 16; for response vs control in vivo at 20 mg/kg: 20 mg./kg./day intraparenterally; for response vs control in vivo at 8 mg/kg: 8 mg./kg/day, procedure of Example 1
Experimental: as §1, §2

[2] = 2.5 mg/kg in mice; cited from earlier work
[3] = tested on: ATP dependent citrate lyase; settings: in vivo; cited from earlier work
acetyl CoA synthetase = settings: in vivo; cited from earlier work
[4] = tested on: phosphatidate phosphohydrolase; settings: in vivo; cited from earlier work
cholesterol excretion = settings: mouse, in vivo; cited from earlier work
serum cholesterol [5] = test: Serum cholesterol (modified Liebermann-Burchard reaction) in mice; type: in vivo; settings: Mus musculus, clofibrate at its therapeutic dose of 150 mg., male CF1 mice
[6] = 216 h, Day 9, read-out: Serum Cholesterol, % of Control, Day 9
[7] = 384 h, Day 16, read-out: Serum Cholesterol, % of Control, Day 16

Compound | response vs control in vivo at 20 mg/kg (serum cholesterol [1]; [6]) [%] | response vs control in vivo at 20 mg/kg (serum cholesterol [1]; [7]) [%] | response vs control in vivo at 20 mg/kg (serum triglyceride; male CF1 mice) [%] | other results
CCCCCCCCCCCCCN [tridecylamine] | 69 ± 5 | 67 ± 5 | 73 ± 7 | –
CCCCCCCCCCCCCCCCCCN(C)C [N,N-dimethyl-n-octadecylamine] | 76 ± 6 | 61 ± 5 | 56 ± 3 | Serum cholesterol, % of Control, Day 9 (serum cholesterol [1]; Day 9): 91 ± 5 % of Control; Serum cholesterol, % of Control, Day 16 (serum cholesterol [1]; Day 16): 79 ± 5 % of Control; response vs control in vivo at 8 mg/kg (serum triglyceride): 84 ± 6%
tetrakis-u-(trimethylamine-borane carboxyato) bis(trimethylaminecarboxyborane)-dicopper (II) | – | – | – | hypolipidemic activity [2]: potent hypolipidemic agent; ATP dependent citrate lyase [3]: lower; acetyl CoA synthetase (acetyl CoA synthetase): lower; phosphatidate phosphohydrolase [4]: lower; cholesterol excretion from the body (cholesterol excretion): accelerate cholesterol excretion from the body
CCCCCCCCCCCCCCCCCCN [octadecylamine] | 72 ± 5 | 64 ± 4 | 56 ± 4 | Serum cholesterol, % of Control, Day 9 (serum cholesterol [1]; Day 9): 63 ± 3 % of Control; Serum cholesterol, % of Control, Day 16 (serum cholesterol [1]; Day 16): 57 ± 4 % of Control; response vs control in vivo at 8 mg/kg (serum triglyceride): 60 ± 5%
CCCCCCCCCCCCN [dodecylamine] | 63 ± 6 | 61 ± 5 | 64 ± 4 | –
CCCCCCCCCCCCCCCCN [1-hexadecylamine] | 39 ± 5 | 35 ± 4 | 63 ± 6 | –
CCOC(=O)C(C)(C)Oc1ccc(Cl)cc1 [clofibrate] | – | – | – | response vs control in vivo at 150 mg (serum triglyceride; clofibrate at its therapeutic dose of 150 mg., male CF1 mice): 75 ± 5%; response vs control in vivo at 150 mg (serum cholesterol [5]; [6]): 88 ± 7%; response vs control in vivo at 150 mg (serum cholesterol [5]; [7]): 87 ± 5%
CCCCCCCCCCN [decylamine] | 48 ± 4 | 38 ± 5 | 59 ± 6 | –
CCCCCCCCCCCCCCN [1-tetradecylamine] | 50 ± 4 | 34 ± 3 | 54 ± 6 | –
CCCCCCCCCCCN [undecylamine] | 61 ± 5 | 57 ± 6 | 66 ± 5 | –
CCCCCCCCCCCCCCCCCCNC [N-methyloctadecylamine] | 51 ± 5 | 44 ± 4 | 64 ± 6 | –
